Measured values published in patent publication US4418068A, “Antiestrogenic and antiandrugenic benzothiophenes” (Eli Lilly and Company, priority 1981, dated 1983).

Legend:
estrogenic response [1] = conditions: Black and Goode 1980; cited from earlier work
[2] = tested on: androgen-stimulated prostate growth; assay: Anti-Androgen Test, adult castrated male rats (ventral prostate weight); format: in vivo; conditions: Experiment A; androgen only, testosterone propionate 0.1 mg./day s.c., 7 days, castrated
Experimental: The antiandrogenic property of the compounds was evaluated in the following tests, in which the compound of Example 3 was used again.
(§1) The animals used in this test were adult male rats having a body weight which averaged about 330 g. when the experiment ended. All of the animals to be used in the experiment were castrated by the scrotal route, and were held untreated for 3 days. On the fourth day, subcutaneous administration of 0.1 mg./day of an exogenous androgen, testosterone propionate, was begun, and was continued for seven consecutive days. An untreated control group of animals received injections of 0.1 ml./day of corn oil as a blank treatment. The compound of this invention was administered orally or subcutaneously to the treated animals in 0.1 ml. of corn oil, at the same time that the androgen was administered. The animals were sacrificed 24 hours after the last injection of testosterone propionate, the ventral prostate glands were removed and weighed, and the mean of the weights of each treatment group was reported. The table below reports the mean weights resulting from administration of various doses of the compound along with androgen.
Each treatment group of animals in this experiment consisted of seven to nine animals, except for the untreated control group, which contained twelve animals.

[3] = tested on: androgen-stimulated prostate growth; assay: Anti-Androgen Test, immature male rats (ventral prostate weight); format: in vivo; conditions: androgen only 20 mcg./day s.c.
Experimental: as §1, with “reported.” for “reported. The table below reports the mean weights resulting from administration of various doses of the compound along with androgen.”
This experiment was carried out in the same manner as Experiment A above, except that the test animals were immature male rats, weighing about 120 g. each at sacrifice. Each treatment group consisted of six or seven animals. All treatments in this experiment were administered by subcutaneous injection. The amount of the androgen administered was only 20 mcg./day because of the small size of the animals.
This experiment was also conducted in immature rats having average body weight of about 115 g. when the experiment ended. In other respects, the experiment was as described under Experiment B above. The treatment groups consisted of ten animals each, except for the androgen only group, of 16 animals, and the 5 mg./kg. group, of nine animals.

[4] = tested on: estrogenic response of estradiol; assay: Antiestrogenic Test, mature ovariectomized mice (uterine weight); format: in vivo, adult ovariectomized mice; conditions: Experiment A; estradiol alone 0.3 mcg., s.c.
Experimental: (§2) This test was conducted with immature 40-45 g. female rats, immature 11-13 g. mice, and adult ovariectomized mice. The rats were tested in groups of six, and mice in groups of ten. All of the laboratory animals were from standardized strains and were equilibrated to the laboratory before the test started. Each test was begun by administering the test compound daily for three days, as a subcutaneous injection or by oral gavage, as indicated below in the reports of individual experiments.
(§3) The test animals were treated for three days and sacrificed on the fourth day, and the uteri were removed, freed of extraneous tissue, and blotted with paper towels. The uteri were weighed to the nearest 0.1 mg.
(§4) The uterine weights are given, in mg., as the means of all of the organ weights of the animals in a group. Compounds are referred to by their example numbers above.
(§5) The same standardized types of laboratory animals which were used in the experiments described above were also used in these experiments. […] Untreated control animals were used in each experiment. […] The dosage and sacrifice schedule, and the method of determining uterine weights and reporting data, were the same as the methods described above under Test 1.

[5] = tested on: estrogenic response of estradiol; assay: Antiestrogenic Test, immature mice (uterine weight); format: in vivo; conditions: Experiment B; estradiol alone 0.3 mcg., s.c.
Experimental: as §2, §3, §4, §5

estrogenic response [6] = assay: Estrogenic Response Test, immature rats (uterine weight); format: in vivo, immature 40-45 g. female rats; conditions: s.c.
Experimental: (§6) The first test reported below is used to determine the estrogenic potency of compounds. It is well known that many compounds having antiestrogenic activity also, typically, have estrogenic activity. As has been explained, estrogenic activity is a liability in an antiestrogen, and thus it is important to identify antiestrogens having a minimum amount of estrogenic activity. This test was conducted with immature 40-45 g. female rats, immature 11-13 g. mice, and adult ovariectomized mice. The rats were tested in groups of six, and mice in groups of ten. All of the laboratory animals were from standardized strains and were equilibrated to the laboratory before the test started. Each test was begun by administering the test compound daily for three days, as a subcutaneous injection or by oral gavage, as indicated below in the reports of individual experiments. Untreated control animals were included in each experiment, along with animals to which estradiol was administered subcutaneously. The estradiol-treated animals provided positive controls, showing the physiological effect of a potent estrogen on the individual group of animals used in the experiment. […] The test animals were treated for three days and sacrificed on the fourth day, and the uteri were removed, freed of extraneous tissue, and blotted with paper towels. The uteri were weighed to the nearest 0.1 mg. The tables below report the results of representative experiments. The doses of estradiol and of the compound of this invention are given as the total of the three daily doses. The uterine weights are given, in mg., as the means of all of the organ weights of the animals in a group. Compounds are referred to by their example numbers above.

estrogenic response [7] = assay: Estrogenic Response Test, mature ovariectomized mice (uterine weight); format: in vivo, adult ovariectomized mice; conditions: Experiment E, s.c.
Experimental: as §6

estrogenic response [8] = assay: Estrogenic Response Test, immature mice (uterine weight); format: in vivo, immature 11-13 g. mice; conditions: Experiment D, s.c.
Experimental: as §6

estrogenic response [9] = assay: Regression Test: reversal of established estrogenic response (uterine weight); format: in vivo, immature rats; conditions: estradiol alone 0.1 mcg./day s.c.
Experimental: The following test was carried out to determine if the compounds of this invention could reverse an estrogenic response, when administration of the compound was started after the estrogenic response had become established.
The test animals were immature rats, and all administrations were by subcutaneous injection.
The mean uterine weights of these groups of animals, respectively, were 97.9, 97.3, 119.9 and 112.3 mg.
The animals were sacrificed on the fifth day and their mean uterine weight was 56.4 mg.
The animals were sacrificed on the seventh day and their mean uterine weight was 57.0 mg.

[10] = tested on: estrogenic response of estradiol; assay: Antiestrogenic Test, immature rats (uterine weight); format: in vivo; conditions: Experiment I, 3 mg., s.c. + estradiol 0.3 mcg.
Experimental: as §2, §3, §4, §5

[11] = tested on: DMBA-induced mammary tumors; assay: Tests Against DMBA-Induced mammary tumors; format: in vivo, adult female virgin rats; conditions: Experiment D
Text: Mammary tumors were induced in adult female virgin rats by a single 20-mg. oral dose of 7,12-dimethylbenzanthracene. Within about six weeks, visible and palpable tumors were present in the mammary tissue of the rats, and the rats were allocated into treatment and control groups in such a way that each group contained animals having approximately the same size and number of tumors. The size of the tumors was estimated by measuring their cross-sectional area. […]
[…] The treated animals received 1 mg./kg. per day of 6-methoxy-2-(4-hydroxyphenyl)-3-[4-(2-piperidinoethoxy)benzoyl]benzo[b]thiophene, hydrochloride, as a subcutaneous injection in corn oil. The animals were not ovariectomized at the end of the experiment.

[12] = 1 mg./kg. per day s.c., fifth week

O=C(c1ccc(OCCN2CCCC2)cc1)c1c(-c2ccc(O)cc2)sc2cc(O)ccc12 [6-hydroxy-2-(4-hydroxyphenyl)-3-[4-(2-pyrrolidinoethoxy)benzoyl]benzo[b]thiophene]
antiestrogenic effectiveness vs tamoxifen or trioxifene (estrogenic response [1]): considerably more effective as an antiestrogen | estrogenicity vs tamoxifen or trioxifene (estrogenic response [1]): considerably less estrogenic

CCC(=O)O[C@H]1CC[C@H]2[C@@H]3CCC4=CC(=O)CC[C@]4(C)[C@H]3CC[C@]12C [Androgen, testosterone propionate, reference compound]
Mean Prostate Weight [2]: 309 mg | Mean Prostate Weight ([3]; Experiment B): 48.7 mg | Mean Prostate Weight ([3]; Experiment C): 43.5 mg

C[C@]12CC[C@@H]3c4ccc(O)cc4CC[C@H]3[C@@H]1CC[C@@H]2O [Estradiol, reference compound]
Uterine weight [4]: 65.9 mg | Uterine weight [5]: 50.3 mg | Uterine weight (estrogenic response [6]; Experiment A, total dose 0.3 mcg.): 74.6 mg | Uterine weight (estrogenic response [6]; Experiment B, total dose 0.3 mcg.): 56.8 mg | Uterine weight (estrogenic response [6]; Experiment C, total dose 0.3 mcg.): 63.1 mg | Uterine weight (estrogenic response [7]; total dose 0.03 mcg.): 25.8 mg | Uterine weight (estrogenic response [7]; total dose 0.1 mcg.): 44.2 mg | Uterine weight (estrogenic response [7]; total dose 0.3 mcg.): 65.9 mg | Uterine weight (estrogenic response [8]; total dose 0.03 mcg.): 33.3 mg | Uterine weight (estrogenic response [8]; total dose 0.09 mcg.): 48.2 mg | Uterine weight (estrogenic response [8]; total dose 0.3 mcg.): 50.3 mg | mean uterine weight (estrogenic response [9]; eight days): 112.3 mg | mean uterine weight (estrogenic response [9]; four days): 97.3 mg | mean uterine weight (estrogenic response [9]; six days): 119.9 mg | mean uterine weight (estrogenic response [9]; three days): 97.9 mg

CC(=O)Oc1ccc(-c2sc3cc(OC(C)=O)ccc3c2C(=O)c2ccc(OCCN3CCCCC3)cc2)cc1 [Example 10, 6-acetoxy-2-(4-acetoxyphenyl)-3-[4-(2-piperidinoethoxy)benzoyl]benzo[b]thiophene]
Uterine weight (estrogenic response [6]; Experiment C, total dose 3 mg.): 30.8 mg | Uterine weight [10]: 32.2 mg

CCCCCCCCCCCC(=O)Oc1ccc(-c2sc3cc(OC(=O)CCCCCCCCCCC)ccc3c2C(=O)c2ccc(OCCN3CCCCC3)cc2)cc1 [Example 11, 6-dodecanoyloxy-2-(4-dodecanoyloxyphenyl)3-[4-(2-piperidinoethoxy)benzoyl]benzo[b]thiophene]
Uterine weight (estrogenic response [6]; Experiment C, total dose 3 mg.): 37.1 mg | Uterine weight [10]: 40.0 mg

CCOC(=O)Oc1ccc(-c2sc3cc(OC(=O)OCC)ccc3c2C(=O)c2ccc(OCCN3CCCCC3)cc2)cc1 [Example 12, 6-ethoxycarbonyloxy-2-(4-ethoxycarbonyloxyphenyl)-3-[4-(2-piperidinoethoxy)benzoyl]benzo[b]thiophene]
Uterine weight (estrogenic response [6]; Experiment C, total dose 3 mg.): 35.8 mg | Uterine weight [10]: 31.8 mg

Cl.O=C(Oc1ccc(-c2sc3cc(OC(=O)c4ccccc4)ccc3c2C(=O)c2ccc(OCCN3CCCCC3)cc2)cc1)c1ccccc1 [Example 13, 6-benzoyloxy-2-(4-benzoyloxyphenyl)-3-[4-(2-piperidinoethoxy)benzoyl]benzo[b]thiophene, hydrochloride]
Uterine weight (estrogenic response [6]; Experiment C, total dose 3 mg.): 39.6 mg | Uterine weight [10]: 41.1 mg

COc1ccc(-c2sc3cc(OC)ccc3c2C(=O)c2ccc(OCCN3CCCCC3)cc2)cc1.Cl [Example 14, 6-methoxy-2-(4-methoxyphenyl)-3-[4-(2-piperidinoethoxy)benzoyl]benzo[b]thiophene, hydrochloride]
Uterine weight (estrogenic response [6]; Experiment C, total dose 3 mg.): 35.1 mg | Uterine weight [10]: 37.5 mg

COc1ccc2c(C(=O)c3ccc(OCCN4CCCCC4)cc3)c(-c3ccc(O)cc3)sc2c1.Cl [Example 19, 6-Methoxy-2-(4-hydroxyphenyl)-3-[4-(2-piperidinoethoxy)benzoyl]benzo[b]thiophene, hydrochloride]
animals with completely regressed tumors ([11]; 1 mg./kg. per day s.c. in corn oil, fourth week): three of the eight treated animals had completely regressed | completely regressed animals [11, 12]: three completely regressed animals | tumor area, upper end of range (single tumor) [11, 12]: ≤ 1974 sq. mm. | average tumor area, other seven treated animals ([11]; 1 mg./kg. per day s.c., fifth week, animal with burst tumors excluded): 398 square millimeters | tumor area of one animal (largest) ([11]; 1 mg./kg. per day s.c., four weeks): 3764 sq. mm. | average tumor area of the other seven animals ([11]; 1 mg./kg. per day s.c., four weeks, animal with 3764 sq. mm. ignored): 254 sq. mm. | average total tumor area of the treated group ([11]; 1 mg./kg. per day s.c., four weeks, eight animals): 692 square millimeters
